Structures are written as SMILES.

Our source for the IC50 values is patent US7943770B2, “Fused quinoline derivative and use thereof” (Takeda Pharmaceutical Company Limited, priority 2004, dated 2011).

This test has as its target T1, hNK2 receptor (Homo sapiens, UniProt P21452).
T1 construct: host or cells: CHO cells
T1 sequence (P21452 1-398): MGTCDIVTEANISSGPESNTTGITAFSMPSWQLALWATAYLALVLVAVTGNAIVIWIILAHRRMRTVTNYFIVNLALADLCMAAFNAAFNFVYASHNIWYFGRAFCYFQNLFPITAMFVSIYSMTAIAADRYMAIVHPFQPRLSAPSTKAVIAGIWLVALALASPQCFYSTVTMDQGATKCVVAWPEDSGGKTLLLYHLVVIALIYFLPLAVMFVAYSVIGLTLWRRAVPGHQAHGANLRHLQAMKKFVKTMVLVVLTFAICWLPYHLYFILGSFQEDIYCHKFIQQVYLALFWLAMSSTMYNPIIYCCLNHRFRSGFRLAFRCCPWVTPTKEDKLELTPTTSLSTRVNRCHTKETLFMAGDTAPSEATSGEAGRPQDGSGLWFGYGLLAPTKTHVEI
Nature of the test: Radio-ligand ([125I]-NKA) receptor binding inhibitory activity using membrane fraction of hNK2 receptor-expressing CHO cell. To be noted: membrane fraction of hNK2 receptor-expressing CHO cells, 25° C., 30 min. The procedure, abridged: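 Membranes from hNK2-expressing CHO cells (20 μg/mL suspension) incubated with test compound and [125I]-NKA ([…] solution as added) in Tris-HCl pH 7.4 with BSA, protease inhibitors, 3 mM MnCl2, 25 °C, 30 min. Bound radioactivity by GF/C filtration and scintillation; inhibition expressed relative to specific binding (total minus unlabeled-NKA non-specific).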
`COC[C@@H]1Nc2ccccc2[C@H]2[C@@H]1CCN2C(=O)[C@H]1CCCC[C@H]1NC(=O)Nc1ccc(-n2ccnc2)cc1` [Example 277, N-[4-(1H-Imidazol-1-yl)phenyl]-N′-((1R,2S)-2-{[(3aR,4R,9bR)-4-(methoxymethyl)-2,3,3a,4,5,9b-hexahydro-1H-pyrrolo[3,2-c]quinolin-1-yl]carbonyl}cyclohexyl)urea]: the IC50 is < 1 nM.

Regarding `COC[C@@H]1Nc2ccccc2[C@H]2[C@@H]1CCN2C(=O)[C@H]1CCCC[C@H]1NC(=O)c1ccc(S(C)(=O)=O)cc1` [Example 278, N-((1R,2S)-2-{[(3aR,4R,9bR)-4-(Methoxymethyl)-2,3,3a,4,5,9b-hexahydro-1H-pyrrolo[3,2-c]quinolin-1-yl]carbonyl}cyclohexyl)-4-(methylsulfonyl)benzamide], the IC50 is < 10 nM.

On to `COC[C@@H]1Nc2ccccc2[C@H]2[C@@H]1CCN2C(=O)[C@H]1CCCC[C@H]1NC(=O)c1ccc2[nH]c(C)nc2c1` [Example 279, N-((1R,2S)-2-{[(3aR,4R,9bR)-4-(Methoxymethyl)-2,3,3a,4,5,9b-hexahydro-1H-pyrrolo[3,2-c]quinolin-1-yl]carbonyl}cyclohexyl)-2-methyl-1H-benzimidazole-5-carboxamide], for which the IC50 is < 1 nM.

In the case of `COC[C@@H]1Nc2ccccc2[C@H]2[C@@H]1CCN2C(=O)[C@H]1CCCC[C@H]1NC(=O)c1c[nH]c(-c2ccccc2)n1` [Example 280, N-((1R,2S)-2-{[(3aR,4R,9bR)-4-(Methoxymethyl)-2,3,3a,4,5,9b-hexahydro-1H-pyrrolo[3,2-c]quinolin-1-yl]carbonyl}cyclohexyl)-2-phenyl-1H-imidazole-4-carboxamide], the half-maximal inhibitory concentration (IC50) is < 1 nM.

For `COC[C@@H]1Nc2ccccc2[C@H]2[C@@H]1CCN2C(=O)[C@H]1CCCC[C@H]1NC(=O)c1ccc(-c2ncc[nH]2)cc1` [Example 281, 4-(1H-imidazol-2-yl)-N-((1R,2S)-2-{[(3aR,4R,9bR)-4-(methoxymethyl)-2,3,3a,4,5,9b-hexahydro-1H-pyrrolo[3,2-c]quinolin-1-yl]carbonyl}cyclohexyl)benzamide], the IC50 is < 1 nM.

For `COC[C@@H]1Nc2ccccc2[C@H]2[C@@H]1CCN2C(=O)[C@H]1CCCC[C@H]1NC(=O)c1ccc2[nH]c(C(F)(F)F)nc2c1` [Example 282, N-((1R,2S)-2-{[(3aR,4R,9bR)-4-(Methoxymethyl)-2,3,3a,4,5,9b-hexahydro-1H-pyrrolo[3,2-c]quinolin-1-yl]carbonyl}cyclohexyl)-2-(trifluoromethyl)-1H-benzimidazole-5-carboxamide], the IC50 was < 10 nM.

Regarding `COC[C@@H]1Nc2ccccc2[C@H]2[C@@H]1CCN2C(=O)[C@H]1CCCC[C@H]1NC(=O)Nc1ccc(C#N)c(C)c1` [Example 283, N-(4-Cyano-3-methylphenyl)-N′-((1R,2S)-2-{[(3aR,4R,9bR)-4-(methoxymethyl)-2,3,3a,4,5,9b-hexahydro-1H-pyrrolo[3,2-c]quinolin-1-yl]carbonyl}cyclohexyl)urea], the concentration for half-maximal inhibition (IC50) was < 1 nM.

Turning to `COC[C@@H]1Nc2ccccc2[C@H]2[C@@H]1CCN2C(=O)[C@H]1CCCC[C@H]1NC(=O)Nc1ccc(-n2cccn2)cc1` [Example 284, N-((1R,2S)-2-{[(3aR,4R,9bR)-4-(methoxymethyl)-2,3,3a,4,5,9b-hexahydro-1H-pyrrolo[3,2-c]quinolin-1-yl]carbonyl}cyclohexyl)-N′-[4-(1H-pyrazol-1-yl)phenyl]urea], the IC50 was < 1 nM.

For `COC[C@@H]1Nc2ccccc2[C@H]2[C@@H]1CCN2C(=O)[C@H]1CCCC[C@H]1NC(=O)Nc1ccc(OC)c(C#N)c1` [Example 285, N-(3-Cyano-4-methoxyphenyl)-N′-((1R,2S)-2-{[(3aR,4R,9bR)-4-(methoxymethyl)-2,3,3a,4,5,9b-hexahydro-1H-pyrrolo[3,2-c]quinolin-1-yl]carbonyl}cyclohexyl)urea], the IC50 is < 1 nM.

In the case of `COC[C@@H]1Nc2ccccc2[C@H]2[C@@H]1CCN2C(=O)[C@H]1CCCC[C@H]1NC(=O)c1ccc(N2CCOCC2)nc1` [Example 286, N-((1R,2S)-2-{[(3aR,4R,9bR)-4-(Methoxymethyl)-2,3,3a,4,5,9b-hexahydro-1H-pyrrolo[3,2-c]quinolin-1-yl]carbonyl}cyclohexyl)-6-morpholin-4-ylnicotinamide], the IC50 is < 10 nM.

Turning to `COC[C@@H]1Nc2ccccc2[C@H]2[C@@H]1CCN2C(=O)[C@H]1CCCC[C@H]1NC(=O)c1ccc(-n2ccnc2C)nc1` [Example 287, N-((1R,2S)-2-{[(3aR,4R,9bR)-4-(Methoxymethyl)-2,3,3a,4,5,9b-hexahydro-1H-pyrrolo[3,2-c]quinolin-1-yl]carbonyl}cyclohexyl)-6-(2-methyl-1H-imidazol-1-yl)nicotinamide], the IC50 was < 10 nM.

As to `COC[C@@H]1Nc2ccccc2[C@H]2[C@@H]1CCN2C(=O)[C@H]1CCCC[C@H]1NC(=O)c1ccc(-n2cccn2)nc1` [Example 288, N-((1R,2S)-2-{[(3aR,4R,9bR)-4-(Methoxymethyl)-2,3,3a,4,5,9b-hexahydro-1H-pyrrolo[3,2-c]quinolin-1-yl]carbonyl}cyclohexyl)-6-(1H-pyrazol-1-yl)nicotinamide], the IC50 was < 1 nM.

As for `COC[C@@H]1Nc2ccccc2[C@H]2[C@@H]1CCN2C(=O)[C@H]1CCCC[C@H]1NC(=O)Nc1ccc(N2CCOCC2)nc1` [Example 289, N-((1R,2S)-2-{[(3aR,4R,9bR)-4-(Methoxymethyl)-2,3,3a,4,5,9b-hexahydro-1H-pyrrolo[3,2-c]quinolin-1-yl]carbonyl}cyclohexyl)-N′-(6-morpholin-4-ylpyridin-3-yl)urea], the IC50 is < 10 nM.

On to `COC[C@@H]1Nc2ccccc2[C@H]2[C@@H]1CCN2C(=O)[C@H]1CCCC[C@H]1NC(=O)c1ccc(-c2cnco2)cc1` [Example 290, N-((1R,2S)-2-{[(3aR,4R,9bR)-4-(Methoxymethyl)-2,3,3a,4,5,9b-hexahydro-1H-pyrrolo[3,2-c]quinolin-1-yl]carbonyl}cyclohexyl)-4-(1,3-oxazol-5-yl)benzamide], for which the IC50 is < 1 nM.

On to `COC[C@@H]1Nc2ccccc2[C@H]2[C@@H]1CCN2C(=O)[C@H]1CCCC[C@H]1NC(=O)c1ccc(N2CCSCC2)cc1` [Example 291, N-((1R,2S)-2-{[(3aR,4R,9bR)-4-(Methoxymethyl)-2,3,3a,4,5,9b-hexahydro-1H-pyrrolo[3,2-c]quinolin-1-yl]carbonyl}cyclohexyl)-4-thiomorpholin-4-ylbenzamide], for which the IC50 was < 1 nM.

As for `O=C(Nc1ccccc1)N[C@@H]1CCCC[C@@H]1C(=O)N1CC[C@@H]2[C@H](c3ncc[nH]3)Nc3ccccc3[C@@H]21` [Example 293, N-((1R,25)-2-{[(3aR,4R,9bR)-4-(1H-Imidazol-2-yl)-2,3,3a,4,5,9b-hexahydro-1H-pyrrolo[3,2-c]quinolin-1-yl]carbonyl}cyclohexyl)-N′-phenylurea], the IC50 was < 1 nM.

As for `O=C(/C=C/c1ccc(C(F)(F)F)cc1)N[C@@H]1CCCC[C@@H]1C(=O)N1CC[C@@H]2[C@H](c3ncc[nH]3)Nc3ccccc3[C@@H]21` [Example 294, (2E)-N-((1R,2S)-2-{[(3aR,4R,9bR)-4-(1H-Imidazol-2-yl)-2,3,3a,4,5,9b-hexahydro-1H-pyrrolo[3,2-c]quinolin-1-yl]carbonyl}cyclohexyl)-3-[4-(trifluoromethyl)phenyl]acrylamide], the IC50 is < 1 nM.

On to `CCNC(=O)N[C@@H]1CCCC[C@@H]1C(=O)N1CC[C@@H]2[C@H](c3ncc[nH]3)Nc3ccccc3[C@@H]21` [Example 295, N-Ethyl-N′-((1R,2S)-2-{[(3aR,4R,9bR)-4-(1H-imidazol-2-yl)-2,3,3a,4,5,9b-hexahydro-1H-pyrrolo[3,2-c]quinolin-1-yl]carbonyl}cyclohexyl)urea], for which the IC50 is < 10 nM.

On to `O=C(N[C@@H]1CCCC[C@@H]1C(=O)N1CC[C@@H]2[C@H](c3ncc[nH]3)Nc3ccccc3[C@@H]21)c1ccc(C(F)(F)F)cc1` [Example 296, N-((1R,2S)-2-{[(3aR,4R,9bR)-4-(1H-Imidazol-2-yl)-2,3,3a,4,5,9b-hexahydro-1H-pyrrolo[3,2-c]quinolin-1-yl]carbonyl}cyclohexyl)-4-(trifluoromethyl)benzamide], for which the half-inhibitory concentration (IC50) was < 1 nM.

With `O=C(/C=C/c1ccc(F)cc1)N[C@@H]1CCCC[C@@H]1C(=O)N1CC[C@@H]2[C@H](c3ncc[nH]3)Nc3ccccc3[C@@H]21` [Example 297, (2E)-3-(4-Fluorophenyl)-N-((1R,2S)-2-{[(3aR,4R,9bR)-4-(1H-imidazol-2-yl)-2,3,3a,4,5,9b-hexahydro-1H-pyrrolo[3,2-c]quinolin-1-yl]carbonyl}cyclohexyl)acrylamide], the IC50 was < 1 nM.

Turning to `O=C(Nc1ccc(F)cc1)N[C@@H]1CCCC[C@@H]1C(=O)N1CC[C@@H]2[C@H](c3ncc[nH]3)Nc3ccccc3[C@@H]21` [Example 298, N-(4-Fluorophenyl)-N′-((1R,2S)-2-{[(3aR,4R,9bR)-4-(1H-imidazol-2-yl)-2,3,3a,4,5,9b-hexahydro-1H-pyrrolo[3,2-c]quinolin-1-yl]carbonyl}cyclohexyl)urea], the half-inhibitory concentration (IC50) is < 1 nM.

`CCCCNC(=O)N[C@@H]1CCCC[C@@H]1C(=O)N1CC[C@@H]2[C@H](c3ncc[nH]3)Nc3ccccc3[C@@H]21` [Example 299, N-Butyl-N′-((1R,2S)-2-{[(3aR,4R,9bR)-4-(1H-imidazol-2-yl)-2,3,3a,4,5,9b-hexahydro-1H-pyrrolo[3,2-c]quinolin-1-yl]carbonyl}cyclohexyl)urea]: the IC50 is < 1 nM.
